Test results taken from patent US8614290B2, “Cancer imaging and treatment” (Technische Universitat Munchen, priority 2007, dated 2013).
Read-outs that look alike come from different tables or passages of the source. Numbered stars: 1 amine (or outer) side, 2 acyl side, 3 side chain; on linkers, the order of the positions; unused ones are H or OH. Bridge positions count the residues as written; N and C are the ends. Square brackets hold non-standard residues; d marks the D form. Peptide text beside a SMILES is read from it. I, II: the chains in the order shown. * marks the point of attachment. C16 diacid = O=C(O)CCCCCCCCCCCCCCC(=O)*; Sebacoyl = O=C(CCCCCCCCC(=O)[*:2])[*:1]; 2Nal = N[C@@H](Cc1ccc2ccccc2c1)C(=O)O; Suberoyl = O=C(CCCCCCC(=O)[*:2])[*:1]; Adipoyl = O=C(CCCCC(=O)[*:2])[*:1]; Glutaryl = O=C(CCCC(=O)[*:2])[*:1]; dNMeOrn = CN[C@H](CCCN)C(=O)O; Suc = O=C(CCC(=O)[*:2])[*:1]; X3 = NC(=O)CCCC(=O)*

Target: human CXCR4 (Homo sapiens, UniProt P61073)
Assay: Competitive receptor binding assay on Jurkat cells with 125I-CPCR4 as tracer
Set-up: Jurkat cells that endogenously express the CXCR4 receptor; endogenous in cells; host or cells: Jurkat cells
Procedure: For receptor binding assays cells were resuspended in PBS/0.2% BSA. A total of 200 μl of the suspension containing 400,000 Jurkat cells were incubated with 25 μl of the tracer solution (containing 3.1 kBq, approx. 0.1 nM) and 25 μl of the diluent or the competitor at different concentrations. […] After shaking for 2 h at room temperature, the incubation was terminated by centrifugation at 1300 rpm for 5 min. Cell pellets were washed once with cold PBS followed by a second centrifugation step. Cell bound radioactivity was determined by using a gamma counter. Experiments were repeated 2-3 times in triplicates. IC50 values of the compounds were calculated by nonlinear regression using GraphPad Prism (GraphPad Prism 4.0 Software, Inc., San Diego, Calif., USA). Each data point is the average of three determinations.

[1] = Table 10, dimers and monomers, read-out: IC50
[2] = Table 1, Nα-monomethylated cyclic pentapeptides, read-out: IC50
[3] = Table 5, D-Orn derivatives, His, Phe, read-out: IC50
[4] = Table 4, Orn-Nδ and/or Orn-Nα-modified pentapeptides, read-out: IC50

Chain of human CXCR4 (P61073 whole entry): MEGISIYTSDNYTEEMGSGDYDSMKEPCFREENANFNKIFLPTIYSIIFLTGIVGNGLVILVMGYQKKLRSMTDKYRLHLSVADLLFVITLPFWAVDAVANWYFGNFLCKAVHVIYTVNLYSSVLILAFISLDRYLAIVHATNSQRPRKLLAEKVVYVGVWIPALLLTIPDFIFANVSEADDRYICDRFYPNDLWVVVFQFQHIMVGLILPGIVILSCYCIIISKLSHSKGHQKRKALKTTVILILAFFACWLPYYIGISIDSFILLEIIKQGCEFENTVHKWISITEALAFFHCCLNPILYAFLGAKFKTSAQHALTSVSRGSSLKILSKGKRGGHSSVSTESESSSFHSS

Structure (SMILES)	IC50 [1]	IC50 (read-out: IC50 (affinity))	other results
N=C(N)NCCC[C@@H]1NC(=O)[C@H](CCCNC(=O)CON=CCCCC=NOCC(=O)NCCC[C@@H]2NC(=O)[C@@H](Cc3ccc(O)cc3)NC(=O)CNC(=O)[C@H](Cc3ccc4ccccc4c3)NC(=O)[C@H](CCCNC(=N)N)NC2=O)NC(=O)[C@@H](Cc2ccc(O)cc2)NC(=O)CNC(=O)[C@H](Cc2ccc3ccccc3c2)NC1=O [Code A22, glutaric aldehyde-(cyclo[D-Tyr-Orn(amineoxyacetyl)-Arg-2-Nal-Gly])2]	57.9 nM	58 ± 4.2 nM	–
CN1C(=O)[C@@H](Cc2ccc(O)cc2)NC(=O)CNC(=O)[C@H](Cc2ccc3ccccc3c2)NC(=O)[C@H](CCCNC(=N)N)NC(=O)[C@H]1CCCNC(=O)CCCC(N)=O [Monomer + Glutaric acid monoamide] (cyclo([2Nal]G[dY][dNMeOrn](X3)R))	66.5 nM	–	–
CN1C(=O)[C@@H](Cc2ccc(O)cc2)NC(=O)CNC(=O)[C@H](Cc2ccc3ccccc3c2)NC(=O)[C@H](CCCNC(=N)N)NC(=O)[C@H]1CCCNC(=O)CNC(=O)C[C@H](NC(=O)CCCCCNC(=O)CN1CCN(CC(=O)O)CCN(CC(=O)O)CCN(CC(=O)O)CC1)C(=O)NCC(=O)NCCC[C@@H]1C(=O)N[C@@H](CCCNC(=N)N)C(=O)N[C@@H](Cc2ccc3ccccc3c2)C(=O)NCC(=O)N[C@H](Cc2ccc(O)cc2)C(=O)N1C [NMe-D-Orn + Gly DOTAAhxAsp]	38 nM	–	–
CN1C(=O)[C@@H](Cc2ccc(O)cc2)NC(=O)CNC(=O)[C@H](Cc2ccc3ccccc3c2)NC(=O)[C@H](CCCNC(=N)N)NC(=O)[C@@H]1CCCNC(=N)N [OD1, cyc[D-Tyr-(Me)Arg-Arg-Nal-Gly]]	–	–	IC50 [2]: 23 nM
CN1C(=O)[C@H](CCCNC(=N)N)NC(=O)[C@@H](Cc2ccc(O)cc2)NC(=O)CNC(=O)[C@H](Cc2ccc3ccccc3c2)NC(=O)[C@@H]1CCCNC(=N)N [OD3, cyc[D-Tyr-Arg-(Me)Arg-Nal-Gly]]	–	–	IC50 [2]: 31 nM
CN(CCC[C@@H]1C(=O)N[C@@H](CCCNC(=N)N)C(=O)N[C@@H](Cc2ccc3ccccc3c2)C(=O)NCC(=O)N[C@H](Cc2ccc(O)cc2)C(=O)N1C)C(=O)c1ccc(F)cc1 [cyc[D-Tyr-(Me)D-Orn(Me,FB)-Arg-Nal-Gly]] (HELM PEPTIDE1{[O=C([C@H](Cc1ccc2ccccc2c1)N[*:1])[*:2]].G.[dY].[CN(CCC[C@H](C(=O)[*:2])N(C)[*:1])C(=O)c1ccc(F)cc1].R}$PEPTIDE1,PEPTIDE1,1:R1-5:R2$$$V2.0)	–	–	IC50 [3]: 59 nM
N=C(N)NCCC[C@@H]1NC(=O)[C@H](Cc2c[nH]cn2)NC(=O)[C@@H](Cc2ccc(O)cc2)NC(=O)CNC(=O)[C@H](Cc2ccc3ccccc3c2)NC1=O [cyc[D-Tyr-His-Arg-Nal-Gly]] (HELM PEPTIDE1{[O=C([C@H](Cc1ccc2ccccc2c1)N[*:1])[*:2]].G.[dY].H.R}$PEPTIDE1,PEPTIDE1,1:R1-5:R2$$$V2.0)	–	–	IC50 [3]: 30 nM
N=C(N)NCCC[C@@H]1NC(=O)[C@H](CCCN(Cc2ccccc2)C(=O)c2ccc(F)cc2)NC(=O)[C@@H](Cc2ccc(O)cc2)NC(=O)CNC(=O)[C@H](Cc2ccc3ccccc3c2)NC1=O [cyc[D-Tyr-Orn(Bz,FB)-Arg-Nal-Gly]] (HELM PEPTIDE1{[O=C([C@H](Cc1ccc2ccccc2c1)N[*:1])[*:2]].G.[dY].[O=C(c1ccc(F)cc1)N(CCC[C@H](N[*:1])C(=O)[*:2])Cc1ccccc1].R}$PEPTIDE1,PEPTIDE1,1:R1-5:R2$$$V2.0)	–	–	IC50 [4]: 100 nM
N=C(N)NCCC[C@@H]1NC(=O)[C@H](CCCNCc2cccc3ccccc23)NC(=O)[C@@H](Cc2ccc(O)cc2)NC(=O)CNC(=O)[C@H](Cc2ccc3ccccc3c2)NC1=O [cyc[D-Tyr-Orn(N1)-Arg-Nal-Gly]] (HELM PEPTIDE1{[dY].[O=C([C@H](CCCNCc1cccc2ccccc12)N[*:1])[*:2]].R.[O=C([C@H](Cc1ccc2ccccc2c1)N[*:1])[*:2]].G}$PEPTIDE1,PEPTIDE1,1:R1-5:R2$$$V2.0)	–	–	IC50 [4]: 40 ± 3 nM

Now from value to compound, other results behind:

IC50 [1]	IC50 (read-out: IC50 (affinity))	Structure (SMILES)	other results
12.3 nM	–	CN1C(=O)[C@@H](Cc2ccc(O)cc2)NC(=O)CNC(=O)[C@H](Cc2ccc3ccccc3c2)NC(=O)[C@H](CCCN=C(N)N)NC(=O)[C@H]1CCCNC(=O)CNC(=O)CC(CC(=O)NCC(=O)NCCC[C@@H]1C(=O)N[C@@H](CCCN=C(N)N)C(=O)N[C@@H](Cc2ccc3ccccc3c2)C(=O)NCC(=O)N[C@H](Cc2ccc(O)cc2)C(=O)N1C)NC(=O)CCCCCNC(=O)CN1CCN(CC(=O)O)CCN(CC(=O)O)CCN(CC(=O)O)CC1 (single isomer, unassigned) [NMe-D-Orn + Gly DOTAAhxbetaAsp]	–
5.48 nM	–	CN1C(=O)[C@@H](Cc2ccc(O)cc2)NC(=O)CNC(=O)[C@H](Cc2ccc3ccccc3c2)NC(=O)[C@H](CCCN=C(N)N)NC(=O)[C@H]1CCCNC(=O)CNC(=O)CC(=O)NCC(=O)NCCC[C@@H]1C(=O)N[C@@H](CCCN=C(N)N)C(=O)N[C@@H](Cc2ccc3ccccc3c2)C(=O)NCC(=O)N[C@H](Cc2ccc(O)cc2)C(=O)N1C [NMe-D-Orn + Gly n = 1]	–
92.1 nM	–	CN1C(=O)[C@@H](Cc2ccc(O)cc2)NC(=O)CNC(=O)[C@H](Cc2ccc3ccccc3c2)NC(=O)[C@H](CCCNC(=N)N)NC(=O)[C@H]1CCCNC(=O)C[C@H](NC(=O)CCCCCNC(=O)CN1CCN(CC(=O)O)CCN(CC(=O)O)CCN(CC(=O)O)CC1)C(=O)NCCC[C@@H]1C(=O)N[C@@H](CCCNC(=N)N)C(=O)N[C@@H](Cc2ccc3ccccc3c2)C(=O)NCC(=O)N[C@H](Cc2ccc(O)cc2)C(=O)N1C [NMe-D-Orn DOTAAhxAsp]	–
37.9 nM	–	CN1C(=O)[C@@H](Cc2ccc(O)cc2)NC(=O)CNC(=O)[C@H](Cc2ccc3ccccc3c2)NC(=O)[C@H](CCCNC(=N)N)NC(=O)[C@H]1CCCNC(=O)C[C@H](NC(=O)CCCCCNC(=O)CN1CCN(CC(=O)O)CCN(CC(=O)O)CCN(CC(=O)O)CC1)C(=O)NCCC[C@@H]1C(=O)N[C@@H](CCCNC(=N)N)C(=O)N[C@@H](Cc2ccc3ccccc3c2)C(=O)NCC(=O)N[C@H](Cc2ccc(O)cc2)C(=O)N1C [NMe-D-Orn InDOTAAhxAsp]	–
6.61 nM	–	CN1C(=O)[C@@H](Cc2ccc(O)cc2)NC(=O)CNC(=O)[C@H](Cc2ccc3ccccc3c2)NC(=O)[C@H](CCCNC(=N)N)NC(=O)[C@H]1CCCNC(=O)CCC(=O)NCCC[C@@H]1C(=O)N[C@@H](CCCNC(=N)N)C(=O)N[C@@H](Cc2ccc3ccccc3c2)C(=O)NCC(=O)N[C@H](Cc2ccc(O)cc2)C(=O)N1C [NMe-D-Orn n = 2] (I: cyclo([2Nal]G[dY][dNMeOrn]R) / II: cyclo([2Nal]G[dY][dNMeOrn]R); linker I:4-II:4 via Suc)	–
–	4.28 ± 2.3 nM	CN1C(=O)[C@@H](Cc2ccc(O)cc2)NC(=O)CNC(=O)[C@H](Cc2ccc3ccccc3c2)NC(=O)[C@H](CCCNC(=N)N)NC(=O)[C@H]1CCCNC(=O)CCCC(=O)NCCC[C@@H]1C(=O)N[C@@H](CCCNC(=N)N)C(=O)N[C@@H](Cc2ccc3ccccc3c2)C(=O)NCC(=O)N[C@H](Cc2ccc(O)cc2)C(=O)N1C [NMe-D-Orn n = 3] (I: cyclo([2Nal]G[dY][dNMeOrn]R) / II: cyclo([2Nal]G[dY][dNMeOrn]R); linker I:4-II:4 via Glutaryl)	–
3.65 nM	4.42 nM	CN1C(=O)[C@@H](Cc2ccc(O)cc2)NC(=O)CNC(=O)[C@H](Cc2ccc3ccccc3c2)NC(=O)[C@H](CCCN=C(N)N)NC(=O)[C@H]1CCCNC(=O)CCCCC(=O)NCCC[C@@H]1C(=O)N[C@@H](CCCN=C(N)N)C(=O)N[C@@H](Cc2ccc3ccccc3c2)C(=O)NCC(=O)N[C@H](Cc2ccc(O)cc2)C(=O)N1C [NMe-D-Orn n = 4] (I: cyclo([2Nal]G[dY][dNMeOrn]R) / II: cyclo([2Nal]G[dY][dNMeOrn]R); linker I:4-II:4 via Adipoyl)	–
–	2.51 ± 0.7 nM	CN1C(=O)[C@@H](Cc2ccc(O)cc2)NC(=O)CNC(=O)[C@H](Cc2ccc3ccccc3c2)NC(=O)[C@H](CCCNC(=N)N)NC(=O)[C@H]1CCCNC(=O)CCCCCCC(=O)NCCC[C@@H]1C(=O)N[C@@H](CCCNC(=N)N)C(=O)N[C@@H](Cc2ccc3ccccc3c2)C(=O)NCC(=O)N[C@H](Cc2ccc(O)cc2)C(=O)N1C [NMe-D-Orn n = 6] (I: cyclo([2Nal]G[dY][dNMeOrn]R) / II: cyclo([2Nal]G[dY][dNMeOrn]R); linker I:4-II:4 via Suberoyl)	–
2.26 nM	2.12 ± 0.9 nM	CN1C(=O)[C@@H](Cc2ccc(O)cc2)NC(=O)CNC(=O)[C@H](Cc2ccc3ccccc3c2)NC(=O)[C@H](CCCN=C(N)N)NC(=O)[C@H]1CCCNC(=O)CCCCCCCCC(=O)NCCC[C@@H]1C(=O)N[C@@H](CCCN=C(N)N)C(=O)N[C@@H](Cc2ccc3ccccc3c2)C(=O)NCC(=O)N[C@H](Cc2ccc(O)cc2)C(=O)N1C [NMe-D-Orn n = 8] (I: cyclo([2Nal]G[dY][dNMeOrn]R) / II: cyclo([2Nal]G[dY][dNMeOrn]R); linker I:4-II:4 via Sebacoyl)	–
–	11.1 ± 3.4 nM	CN1C(=O)[C@@H](Cc2ccc(O)cc2)NC(=O)CNC(=O)[C@H](Cc2ccc3ccccc3c2)NC(=O)[C@H](CCCNC(=N)N)NC(=O)[C@H]1CCCNC(=O)CCCCCCCCCCCC(=O)NCCC[C@@H]1C(=O)N[C@@H](CCCNC(=N)N)C(=O)N[C@@H](Cc2ccc3ccccc3c2)C(=O)NCC(=O)N[C@H](Cc2ccc(O)cc2)C(=O)N1C [NMe-D-Orn n = 11]	–
33.5 nM	–	CN1C(=O)[C@@H](Cc2ccc(O)cc2)NC(=O)CNC(=O)[C@H](Cc2ccc3ccccc3c2)NC(=O)[C@H](CCCNC(=N)N)NC(=O)[C@H]1CCCNC(=O)CCCCCCCCCCCCCCC(=O)NCCC[C@@H]1C(=O)N[C@@H](CCCNC(=N)N)C(=O)N[C@@H](Cc2ccc3ccccc3c2)C(=O)NCC(=O)N[C@H](Cc2ccc(O)cc2)C(=O)N1C [NMe-D-Orn n = 14] (I: cyclo([2Nal]G[dY][dNMeOrn]R) / II: cyclo([2Nal]G[dY][dNMeOrn]R); linker I:4-II:4 via C16 diacid (inferred); ring closure inferred)	–
